A word on the EC50: it is the concentration that produces a half-maximal response. The low end stands for higher potency in that assay, the high end for lower potency in that assay.

Where only a bound is given, the exact number is not on record here.

Data set [1] relates to intracellular amastigotes of L. panamensis. Briefly: in vitro antileishmanial activity on intracellular amastigotes (EGFP strain in U-937 cells, flow cytometry). The conditions noted are these: for IS (Index of Selectivity = LC50/EC50): LC50 (U-937) / EC50 (L. panamensis amastigotes); for EC50: intracellular amastigotes of L. panamensis (MHOM/CO/87/UA140-EGFP) in U-937 cells, 72 h, mean ± SD; for antileishmanial activity (in words): 10-50 µM moderately active, > 50 µM low activity. Format: cell-based, Leishmania panamensis. On the procedure: Antileishmanial activity of compounds was determined according to the ability to reduce the infection by L. panamensis parasites, a Leishmania species that is highly prevalent in the Central America and Colombia as causative agent of C.L. For this, the antileishmanial activity was tested on intracellular amastigotes of L. panamensis transfected with the green fluorescent protein gene (MHOM/CO/87/UA140-EGFP strain). […] Plates were incubated at 34 °C and 5% CO2 for 3 h and then cells were washed twice with PBS to eliminate not internalized parasites. […] Cells were washed two times employing PBS, as previously, and after the last wash, the supernatant was discarded and cells were suspended in 500 μL of PBS.
Cells were analyzed by flow cytometry employing a flow cytometer (Cytomics FC 500MPL, Beckman Coulter. Pasadena, CA, USA) reading at 488 nm (exciting) and 525 nm (emitting) over an argon laser and counting 10,000 events. Infected cells were determined according the events for green fluorescence (parasites). All determinations for each compound and standard drug were carried out by triplicate, in two experiments. Infected cells exposed to amphotericin B were used as control for antileishmanial activity (positive control) while infected cells incubated in absence of any compound or drug were used as control for infection (negative control). Nonspecific fluorescence was corrected by subtracting fluorescence of unstained cells. Determinations were done by triplicate in at least two independent experiments.
Antileishmanial activity was determined according reduction of percentage of fluorescent parasites determined according to the median fluorescence intensity (MFI), obtained for each experimental condition by cytometry. The parasite values for each concentration of compound were calculated by Equation (3), where the % of parasites in the control well, corresponds to 100% of parasites:% parasites = (MFI exposed parasites/MFI unexposed parasites) × 100(3)
Results of antileishmanial activities were expressed as the EC50 calculated by Probit method. The compound were classified according to EC50 values using a scale defined by us, based on the hit criteria proposed by Katsuno et al.[25].
A general note: A flow cytometer gives signals particle by particle.

The nature of the next data set: in vitro. The conditions noted are these: human. On the procedure: (§1) Cells exposed to compounds or standard drug were incubated 72 h at 37 °C and 5% of CO2. Cytotoxic activity of each compound was determined according to the effect on the cell viability by the MTT microenzymatic method in which 3-(4,5-dimethylthiazol-2-yl)-2,5-diphenyltetrazolium bromide is reduced to a purple product named formazan by mitochondrial enzyme succinate dehydrogenase. Thus, 10 μL/well of MTT solution (5 mg/mL) were added to each well of exposed and unexposed cells, and plates were incubated at 37 °C, 5% CO2 during 3 h. The reaction was stopped by adding 100 μL/well of isopropanol with 50% and 10% of sodium dodecyl sulfate. The concentration of formazan was determined spectrophotometrically at 570 nm (Varioskan Flash Multimode Reader, Thermo Scientific, Waltham, MA, USA) and intensity of color (absorbance) was registered as O.D. Cells exposed to amphotericin B were used as control for toxicity (positive control) while cell incubated in absence of any compound or drug were used as control for viability (negative control). Non-specific absorbance was corrected by subtracting absorbance (O.D.) of the blank. Determinations were done by triplicate in at least two independent experiments.
(§2) Cytotoxicity was determined according to viability and mortality percentages obtained for each experimental condition (synthetized compounds, amphotericin B and culture medium). […] Initially, viability percentages were calculated by Equation (1), where the O.D. of control well, corresponds to 100% of viability:% viability = (O.D. exposed cells/O.D. unexposed cells) × 100(1)

Data set [2] has as its system human monocytes (U-937 ATCC CRL-1593.2). Briefly: in vitro. Particulars: for CC50: read-out: LC50, U-937 cells, 72 h, MTT, mean ± SD. On the procedure:
as §1, §2

With `CC1C/C(=N\NC(=O)c2ccncc2)c2ccccc2S1` (stereo not shown) [Compound 14, (E)-N′-(2-Methylthiochroman-4-ylidene)isonicotinohydrazide], in data set [1], the “IS (Index of Selectivity = LC50/EC50)” value is listed as greater than 11.9. Further, the EC50 in data set [1] (Leishmania panamensis) was found to be 56.6 ± 0.7 µM. The same compound returned a CC50 at 72 h in “in vitro” greater than 672 µM.

For the compound `O=C1CC(c2ccccc2)Sc2ccccc21` (stereo not shown) [Compound 5, 2-Phenylthiochroman-4-one], in data set [1], the “IS (Index of Selectivity = LC50/EC50)” value is on record as greater than 0.9. Moreover, a half-maximal response in data set [1] (Leishmania panamensis) (EC50) required 44.1 ± 0.9 µM. Moreover, in data set [1] (scale b56: EC50 < 10 µM highly active), the “antileishmanial activity (in words)” value is given as “moderate antileishmanial activity”. The “cytotoxic activity (in words)” value in data set [2] (scale b53: LC50 < 100 µM high toxicity, 100-200 µM moderate, > 200 µM potential nontoxicity) was “high cytotoxic activity”. In “in vitro”, the CC50 at 72 h is greater than 41.6 µM.

As to `O=C(N/N=C1\CCSc2ccc(F)cc21)c1ccncc1` [Compound 11, (E)-N′-(6-Fluorothiochroman-4-ylidene)isonicotinohydrazide], the “IS (Index of Selectivity = LC50/EC50)” value in data set [1] is greater than 16.6. The compound also registered an EC50 in data set [1] (Leishmania panamensis) of 39.9 ± 5.3 µM. The compound also had a CC50 at 72 h in the data set “in vitro” greater than 664 µM.

Consider `CC1C/C(=N\NC(=O)c2ccncc2)c2cc(F)ccc2S1` (stereo not shown) [Compound 17, (E)-N′-(6-Fluoro-2-methylthiochroman-4-ylidene)isonicotinohydrazide], for which the “IS (Index of Selectivity = LC50/EC50)” value in data set [1] stood at 2.1. In data set [1] (Leishmania panamensis), this compound returned a concentration giving a half-maximal response (EC50) of 98.9 ± 19.3 µM. In “in vitro”, the CC50 at 72 h was 203 ± 25.4 µM.

For the compound `O=C(N/N=C1\CC(c2ccccc2)Sc2ccccc21)c1ccncc1` (stereo not shown) [Compound 22, (E)-N′-(2-Phenylthiochroman-4-ylidene)isonicotinohydrazide], in data set [1], the “IS (Index of Selectivity = LC50/EC50)” value is greater than 33.9. In addition, in data set [1] (Leishmania panamensis), the midpoint of the response, the EC50, lay at 16.4 ± 3.6 µM. Also, the CC50 at 72 h in the data set “in vitro” was greater than 556 µM.

For the compound `C[C@@H]1[C@H](O)[C@@H](C)/C=C/C=C/C=C/C=C/C=C/C=C/C=C/[C@H](O[C@@H]2O[C@H](C)[C@@H](O)[C@H](N)[C@@H]2O)C[C@@H]2O[C@](O)(C[C@@H](O)C[C@@H](O)[C@H](O)CC[C@@H](O)C[C@@H](O)CC(=O)O[C@H]1C)C[C@H](O)[C@H]2C(=O)O` [Amphotericin B, reference compound], the EC50 in data set [1] (Leishmania panamensis) was 0.32 µM. Besides, in “in vitro”, the CC50 at 72 h came to 39.6 ± 8.7 µM.

Turning to `Nc1ccc(C(=O)N/N=C2\CCSc3ccc(F)cc32)cc1` [Compound 12, (E)-4-Amino-N′-(6-fluorothiochroman-4-ylidene)benzohydrazide], in data set [1], the “IS (Index of Selectivity = LC50/EC50)” value is recorded as greater than 6.6. In addition, in data set [1] (Leishmania panamensis), the half-maximal effective concentration (EC50) is 95.5 ± 6.9 µM. The same compound came in with a CC50 at 72 h in the data set “in vitro” greater than 634 µM.

As to `NC(=S)N/N=C1\CC(c2ccccc2)Sc2ccccc21` (stereo not shown) [Compound 20, (E)-2-(2-Phenylthiochroman-4-ylidene)hydrazinecarbothioamide], the “IS (Index of Selectivity = LC50/EC50)” value in data set [1] amounted to 9.8. Also, the midpoint of the response in data set [1] (Leishmania panamensis), the EC50, lay at 5.1 ± 1.3 µM. Besides, the CC50 at 72 h in “in vitro” was 50.1 ± 4.1 µM.

As for `CC1C/C(=N\NC(=O)c2ccc(N)cc2)c2ccccc2S1` (stereo not shown) [Compound 15, (E)-4-Amino-N′-(2-methylthiochroman-4-ylidene)benzohydrazide], the “IS (Index of Selectivity = LC50/EC50)” value in data set [1] came to 1.1. This compound displayed a 50% effective concentration (EC50) in data set [1] (Leishmania panamensis) of 91.8 ± 13.5 µM. Moreover, the CC50 at 72 h in “in vitro” stood at 102 ± 15.1 µM.

`O=C(N/N=C1\CC(c2ccccc2)Sc2ccccc21)c1ccccc1` (stereo not shown) [Compound 21, (E)-N′-(2-Phenylthiochroman-4-ylidene)benzohydrazide]: the EC50 in data set [1] (Leishmania panamensis) came out at 28.5 ± 2.8 µM. Moreover, the CC50 at 72 h in “in vitro” was found to be 529 ± 7 µM.

Regarding `CC1C/C(=N\NC(=O)c2ccccc2)c2ccccc2S1` (stereo not shown) [Compound 13, (E)-N′-(2-Methylthiochroman-4-ylidene)benzohydrazide], the “IS (Index of Selectivity = LC50/EC50)” value in data set [1] worked out at 3.9. For the same compound, the EC50 in data set [1] (Leishmania panamensis) was 38.1 ± 16.2 µM. Moreover, the CC50 at 72 h in the data set “in vitro” worked out at 150 ± 24.3 µM.

In the case of `O=C(N/N=C1\CCSc2ccccc21)c1ccncc1` [Compound 7, (E)-N′-(Thiochroman-4-ylidene)isonicotinohydrazide], the “IS (Index of Selectivity = LC50/EC50)” value in data set [1] was greater than 12.4. The compound further gave a half-maximal effective concentration (EC50) in data set [1] (Leishmania panamensis) of 56.8 ± 4.54 µM. In “in vitro”, this compound returned a CC50 at 72 h of 706 µM.

For the compound `O=C1CCSc2ccc(F)cc21` [Compound 2, 6-Fluorothiochroman-4-one], in data set [1], the “IS (Index of Selectivity = LC50/EC50)” value was less than 6.5. Besides, in data set [1] (Leishmania panamensis), the concentration for a half-maximal effect (EC50) was greater than 110 µM. Moreover, the CC50 at 72 h in “in vitro” was greater than 706 µM.

With `O=C(N/N=C1\CCSc2ccc(F)cc21)c1ccccc1` [Compound 10, (E)-N′-(6-Fluorothiochroman-4-ylidene)benzohydrazide], in data set [1], the “IS (Index of Selectivity = LC50/EC50)” value is listed as greater than 17.6. The same compound displayed an EC50 in data set [1] (Leishmania panamensis) of 37.3 ± 3.3 µM. The same compound showed a CC50 at 72 h in the data set “in vitro” greater than 666 µM.

Consider `O=C1CCSc2ccccc21` [Compound 1, thiocroman-4-one], for which it took 344 ± 75.6 µM to reach a half-maximal effect in data set [1] (EC50). The CC50 in data set [2] was greater than 1 mM.

For `NC(=O)N/N=C1\CC(c2ccccc2)Sc2ccccc21` (stereo not shown) [Compound 19, (E)-2-(2-Phenylthiochroman-4-ylidene)hydrazinecarboxamide], the “IS (Index of Selectivity = LC50/EC50)” value in data set [1] is reported as 18.6. The compound also showed an EC50 in data set [1] (Leishmania panamensis) of 5.4 ± 1 µM. In the data set “in vitro”, this compound returned a CC50 at 72 h of 100 ± 19.8 µM.

Turning to `NNC(N)=S` [thiosemicarbazide, reference compound], the “antileishmanial activity (in words)” value in data set [1] ([…]) was “inactive”. In data set [1], this compound showed an EC50 greater than 267 µM. The CC50 in data set [2] was greater than 1 mM.

As to `CC1C/C(=N\NC(=O)c2ccc(N)cc2)c2cc(F)ccc2S1` (stereo not shown) [Compound 18, (E)-4-Amino-N′-(6-fluoro-2-methylthiochroman-4-ylidene)benzohydrazide], the “IS (Index of Selectivity = LC50/EC50)” value in data set [1] worked out at 0.2. The compound also showed an EC50 in data set [1] (Leishmania panamensis) of 161 ± 2.4 µM. This compound also displayed a CC50 at 72 h in the data set “in vitro” of 31 ± 7 µM.

Compound `CC1C/C(=N\NC(=O)c2ccccc2)c2cc(F)ccc2S1` (stereo not shown) [Compound 16, (E)-N′-(6-Fluoro-2-methylthiochroman-4-ylidene)benzohydrazide] showed an EC50 in data set [1] (Leishmania panamensis) of 43.9 ± 4.5 µM. The compound also displayed a CC50 at 72 h in “in vitro” greater than 636 µM.

On to `CC1CC(=O)c2ccccc2S1` (stereo not shown) [Compound 3, 2-Methylthiochroman-4-one], for which the “IS (Index of Selectivity = LC50/EC50)” value in data set [1] is listed as 1.4. Also, the 50% effective concentration (EC50) in data set [1] (Leishmania panamensis) is 445 ± 7.3 µM. Moreover, in the data set “in vitro”, the CC50 at 72 h was found to be 604 ± 86.4 µM.

For `CC1CC(=O)c2cc(F)ccc2S1` (stereo not shown) [Compound 4, 6-Fluoro-2-methylthiochroman-4-one], in data set [1], the “IS (Index of Selectivity = LC50/EC50)” value came to 1.4. In data set [1] (Leishmania panamensis), this compound yielded an EC50 of 422 ± 9.2 µM. The compound further displayed a CC50 at 72 h in “in vitro” of 579 ± 59.1 µM.

Take `O=C(N/N=C1\CCSc2ccccc21)c1ccccc1` [Compound 6, (E)-N′-(Thiochroman-4-ylidene)benzohydrazide]: in data set [1], the “IS (Index of Selectivity = LC50/EC50)” value is given as 3.9. The compound also showed an EC50 in data set [1] (Leishmania panamensis) of 63.7 ± 9.2 µM. This compound displayed a CC50 at 72 h in the data set “in vitro” of 248 ± 49.6 µM.

With `NC(=O)N/N=C1\CCSc2ccccc21` [Compound 8, (E)-2-(Thiochroman-4-ylidene)hydrazinecarboxamide], the “IS (Index of Selectivity = LC50/EC50)” value in data set [1] was found to be 7.0. This compound came in with an EC50 in data set [1] (Leishmania panamensis) of 91.5 ± 33.4 µM. Besides, the CC50 at 72 h in “in vitro” was 637 ± 37.9 µM.

The values above are taken from PMC6017792, “Hydrazone Derivatives Enhance Antileishmanial Activity of Thiochroman-4-ones” (Molecules : A Journal of Synthetic Chemistry and Natural …, 2017).
